Measurements as given in patent publication US20110319329A1, “USE OF SO[…] IN CLUSTER HEADACHE” (priority 2007, published 2011).
Like-named read-outs stand apart in the source and are kept apart here. Numbered stars: 1 amine (or outer) side, 2 acyl side, 3 side chain; on linkers, the order of the positions; unused ones are H or OH. Square brackets hold non-standard residues; d marks the D form. Side chains are listed from the residue outwards. Peptide text beside a SMILES is read from it. * marks the point of attachment. Ethylenediamine = C(CN[*:2])N[*:1]; Hyp = O=C(O)[C@@H]1C[C@@H](O)CN1; Phg = N[C@H](C(=O)O)c1ccccc1; CO = O=C([*:1])[*:2]; Bn = c1ccc(C*)cc1

Legend:
[1] = partition coefficient (lipophilicity)
[2] = cited from earlier work

Compound	logP [1]	half-life ([2]; octapeptide analog, can be given subcutaneously)	half-life ([2]; native somatostatin, necessitates intravenous infusion)
NCCCC[C@@H]1NC(=O)[C@@H](Cc2c[nH]c3ccccc23)NC(=O)[C@H](c2ccccc2)NC(=O)[C@@H]2C[C@@H](OC(=O)NCCN)CN2C(=O)[C@H](Cc2ccccc2)NC(=O)[C@H](Cc2ccc(OCc3ccccc3)cc2)NC1=O [pasireotide, cyclo[{4-(NH2—C2H4—NH—CO—O-)Pro}-Phg-DTrp-Lys-Tyr(4-Bzl)-Phe]] (cyclo([Hyp]([CO-Ethylenediamine])[Phg][dW]KY(Bn)F); ring closure inferred)	2.7	–	–
C[C@@H](O)[C@@H]1NC(=O)[C@H](CCCCN)NC(=O)[C@@H](Cc2c[nH]c3ccccc23)NC(=O)[C@H](Cc2ccccc2)NC(=O)[C@@H](NC(=O)[C@H](N)Cc2ccccc2)CSSC[C@@H](C(=O)N[C@H](CO)[C@@H](C)O)NC1=O [octreotide]	5.5	approximately 1.5 hours	–
somatostatin	–	–	several minutes
